Consider three molecules from ChEMBL document CHEMBL4118098, “Discovery of DS28120313 as a potent orally active hepcidin production inhibitor: Design and optimization of novel 4,6-disubstituted indazole derivatives” (Bioorg Med Chem Lett, 2017).

The target of test [1] is MAP kinase-activated protein kinase 2 (Homo sapiens) (UniProt P49137). The test can be described thus: Inhibition of MAPKAPK2 (unknown origin) at 0.164 uM relative to control.
Test [2] has as its target T1, Serine/threonine-protein kinase D1 (Homo sapiens) (UniProt Q15139).
T1 sequence (whole entry): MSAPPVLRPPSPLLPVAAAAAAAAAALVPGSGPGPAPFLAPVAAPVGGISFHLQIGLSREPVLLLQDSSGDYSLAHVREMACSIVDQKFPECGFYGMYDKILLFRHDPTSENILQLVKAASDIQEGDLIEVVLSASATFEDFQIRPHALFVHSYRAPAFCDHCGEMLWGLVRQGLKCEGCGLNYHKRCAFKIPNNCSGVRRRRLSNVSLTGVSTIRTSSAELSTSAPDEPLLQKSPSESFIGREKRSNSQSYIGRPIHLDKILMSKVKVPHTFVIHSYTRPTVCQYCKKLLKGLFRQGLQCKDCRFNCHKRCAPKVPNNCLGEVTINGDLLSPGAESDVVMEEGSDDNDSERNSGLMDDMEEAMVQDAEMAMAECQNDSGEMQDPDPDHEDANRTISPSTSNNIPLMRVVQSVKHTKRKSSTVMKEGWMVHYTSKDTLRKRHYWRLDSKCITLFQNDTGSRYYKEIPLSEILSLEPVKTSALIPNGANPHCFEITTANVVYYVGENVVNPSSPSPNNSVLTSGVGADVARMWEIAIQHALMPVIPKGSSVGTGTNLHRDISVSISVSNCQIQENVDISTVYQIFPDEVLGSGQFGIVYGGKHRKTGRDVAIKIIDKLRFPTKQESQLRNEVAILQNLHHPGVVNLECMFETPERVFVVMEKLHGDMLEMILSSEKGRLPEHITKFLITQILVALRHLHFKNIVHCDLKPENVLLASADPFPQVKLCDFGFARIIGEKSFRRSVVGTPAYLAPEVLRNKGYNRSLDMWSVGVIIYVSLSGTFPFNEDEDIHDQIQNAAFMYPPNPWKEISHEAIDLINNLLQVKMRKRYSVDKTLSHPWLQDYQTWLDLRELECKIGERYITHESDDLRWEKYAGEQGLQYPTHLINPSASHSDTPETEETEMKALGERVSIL
The test can be described thus: Inhibition of PKD1 (unknown origin) at 0.164 uM relative to control.

For test [3], the target named is Serine/threonine-protein kinase BRSK2 (Homo sapiens) (UniProt Q8IWQ3). The test can be described thus: Inhibition of BRSK2 (unknown origin) at 0.164 uM relative to control.
In test [4] the test system is Proto-oncogene tyrosine-protein kinase receptor Ret (Homo sapiens), P07949 [V804L]. The test can be described thus: Inhibition of Ret V804L mutant (unknown origin) at 0.164 uM relative to control.
For test [5], the target named is Cyclin-dependent kinase 2 (Homo sapiens) (UniProt P24941). The test can be described thus: Inhibition of CDK2 (unknown origin) at 0.164 uM relative to control.
The target in test [6] is Serine/threonine-protein kinase pim-2 (Homo sapiens) (UniProt Q9P1W9). The test can be described thus: Inhibition of PIM2 (unknown origin) at 0.164 uM relative to control.
Test [7] addresses Tyrosine-protein kinase Tec (Homo sapiens) (UniProt P42680). The test can be described thus: Inhibition of TEC (unknown origin) at 0.164 uM relative to control.
Test [8] has as its target Serine/threonine-protein kinase pim-3 (Homo sapiens) (UniProt Q86V86). The test can be described thus: Inhibition of PIM3 (unknown origin) at 0.164 uM relative to control.
The test system of test [9] is Platelet-derived growth factor receptor alpha (Homo sapiens), P16234 [D842V]. The test can be described thus: Inhibition of PDGFRA D842V mutant (unknown origin) at 0.164 uM relative to control.
Test [10] deals with MAP kinase-activated protein kinase 3 (Homo sapiens) (UniProt Q16644). The test can be described thus: Inhibition of MAPKAPK3 (unknown origin) at 0.164 uM relative to control.
Test [11] deals with Fibroblast growth factor receptor 2 (Homo sapiens), P21802 [N549H]. The test can be described thus: Inhibition of FGFR2 N549H mutant (unknown origin) at 0.164 uM.
In test [12] the target is RAC-gamma serine/threonine-protein kinase (Homo sapiens) (UniProt Q9Y243). The test can be described thus: Inhibition of AKT3 (unknown origin) at 0.164 uM relative to control.
The target in test [13] is Death-associated protein kinase 1 (Homo sapiens) (UniProt P53355). The test can be described thus: Inhibition of DAPK1 (unknown origin) at 0.164 uM relative to control.
Test [14] deals with Serine/threonine-protein kinase 25 (Homo sapiens) (UniProt O00506). The test can be described thus: Inhibition of YSK (unknown origin) at 0.164 uM relative to control.
Test [15] deals with RAC-beta serine/threonine-protein kinase (Homo sapiens) (UniProt P31751). The test can be described thus: Inhibition of AKT2 (unknown origin) at 0.45 uM relative to control.
In test [16] the target is Rho-associated protein kinase 1 (Homo sapiens) (UniProt Q13464). The test can be described thus: Inhibition of ROCK1 (unknown origin) at 0.45 uM relative to control.
For test [17], the target named is Death-associated protein kinase 1 (Homo sapiens) (UniProt P53355). The test can be described thus: Inhibition of DAPK1 (unknown origin) at 0.45 uM relative to control.
For test [18], the target named is CDK4/Cyclin D3 (Homo sapiens) (UniProt P11802+P30281). The test can be described thus: Inhibition of CDK4/CyclinD3 (unknown origin) at 0.45 uM relative to control. The test is classed as protein-complex assay.
Test [19] has as its target MAP kinase-activated protein kinase 2 (Homo sapiens) (UniProt P49137). The test can be described thus: Inhibition of MAPKAPK2 (unknown origin) at 0.19 uM relative to control.
Test [20] addresses Protein kinase C zeta type (Homo sapiens) (UniProt Q05513). The test can be described thus: Inhibition of PKC-zeta (unknown origin) at 0.19 uM relative to control.
Test [21] has as its system Epidermal growth factor receptor (Homo sapiens), P00533 [L858R,T790M]. The test can be described thus: Inhibition of EGFR T790M/L858R double mutant (unknown origin) at 0.19 uM relative to control.
Test [22] has as its target Serine/threonine-protein kinase 24 (Homo sapiens) (UniProt Q9Y6E0). The test can be described thus: Inhibition of MST3 (unknown origin) at 0.19 uM relative to control.
The target in test [23] is Platelet-derived growth factor receptor beta (Homo sapiens) (UniProt P09619). The test can be described thus: Inhibition of PDGFR beta (unknown origin) at 0.19 uM relative to control.
In test [24] the target is Serine/threonine-protein kinase PAK 5 (Homo sapiens) (UniProt Q9P286). The test can be described thus: Inhibition of PAK5/PAK7 (unknown origin) at 0.19 uM relative to control.
Test [25] deals with Fibroblast growth factor receptor 4 (Homo sapiens) (UniProt P22455). The test can be described thus: Inhibition of FGFR4 (unknown origin) at 0.19 uM relative to control.
Test [26] deals with Epidermal growth factor receptor (Homo sapiens) (UniProt P00533). The test can be described thus: Inhibition of EGFR (unknown origin) at 0.19 uM relative to control.
The target of test [27] is Mitogen-activated protein kinase 13 (Homo sapiens) (UniProt O15264). The test can be described thus: Inhibition of p38-delta (unknown origin) at 0.19 uM relative to control.
Test [28] addresses Dual specificity tyrosine-phosphorylation-regulated kinase 2 (Homo sapiens) (UniProt Q92630). The test can be described thus: Inhibition of DYRK2 (unknown origin) at 0.19 uM relative to control.

MAP kinase-activated protein kinase 2 (Homo sapiens), sequence (P49137 whole entry, looked up): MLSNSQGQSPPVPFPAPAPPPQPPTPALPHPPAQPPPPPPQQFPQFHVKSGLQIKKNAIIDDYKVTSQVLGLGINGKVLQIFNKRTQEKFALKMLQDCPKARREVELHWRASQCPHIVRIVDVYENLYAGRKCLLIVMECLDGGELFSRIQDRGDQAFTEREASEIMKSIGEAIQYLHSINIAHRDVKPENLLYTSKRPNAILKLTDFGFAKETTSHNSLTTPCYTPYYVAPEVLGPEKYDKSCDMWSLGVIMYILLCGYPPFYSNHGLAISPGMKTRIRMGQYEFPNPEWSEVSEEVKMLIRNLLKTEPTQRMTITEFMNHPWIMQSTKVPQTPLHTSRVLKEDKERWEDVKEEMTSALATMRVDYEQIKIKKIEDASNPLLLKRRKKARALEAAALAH
Death-associated protein kinase 1 (Homo sapiens), sequence (P53355 whole entry, looked up): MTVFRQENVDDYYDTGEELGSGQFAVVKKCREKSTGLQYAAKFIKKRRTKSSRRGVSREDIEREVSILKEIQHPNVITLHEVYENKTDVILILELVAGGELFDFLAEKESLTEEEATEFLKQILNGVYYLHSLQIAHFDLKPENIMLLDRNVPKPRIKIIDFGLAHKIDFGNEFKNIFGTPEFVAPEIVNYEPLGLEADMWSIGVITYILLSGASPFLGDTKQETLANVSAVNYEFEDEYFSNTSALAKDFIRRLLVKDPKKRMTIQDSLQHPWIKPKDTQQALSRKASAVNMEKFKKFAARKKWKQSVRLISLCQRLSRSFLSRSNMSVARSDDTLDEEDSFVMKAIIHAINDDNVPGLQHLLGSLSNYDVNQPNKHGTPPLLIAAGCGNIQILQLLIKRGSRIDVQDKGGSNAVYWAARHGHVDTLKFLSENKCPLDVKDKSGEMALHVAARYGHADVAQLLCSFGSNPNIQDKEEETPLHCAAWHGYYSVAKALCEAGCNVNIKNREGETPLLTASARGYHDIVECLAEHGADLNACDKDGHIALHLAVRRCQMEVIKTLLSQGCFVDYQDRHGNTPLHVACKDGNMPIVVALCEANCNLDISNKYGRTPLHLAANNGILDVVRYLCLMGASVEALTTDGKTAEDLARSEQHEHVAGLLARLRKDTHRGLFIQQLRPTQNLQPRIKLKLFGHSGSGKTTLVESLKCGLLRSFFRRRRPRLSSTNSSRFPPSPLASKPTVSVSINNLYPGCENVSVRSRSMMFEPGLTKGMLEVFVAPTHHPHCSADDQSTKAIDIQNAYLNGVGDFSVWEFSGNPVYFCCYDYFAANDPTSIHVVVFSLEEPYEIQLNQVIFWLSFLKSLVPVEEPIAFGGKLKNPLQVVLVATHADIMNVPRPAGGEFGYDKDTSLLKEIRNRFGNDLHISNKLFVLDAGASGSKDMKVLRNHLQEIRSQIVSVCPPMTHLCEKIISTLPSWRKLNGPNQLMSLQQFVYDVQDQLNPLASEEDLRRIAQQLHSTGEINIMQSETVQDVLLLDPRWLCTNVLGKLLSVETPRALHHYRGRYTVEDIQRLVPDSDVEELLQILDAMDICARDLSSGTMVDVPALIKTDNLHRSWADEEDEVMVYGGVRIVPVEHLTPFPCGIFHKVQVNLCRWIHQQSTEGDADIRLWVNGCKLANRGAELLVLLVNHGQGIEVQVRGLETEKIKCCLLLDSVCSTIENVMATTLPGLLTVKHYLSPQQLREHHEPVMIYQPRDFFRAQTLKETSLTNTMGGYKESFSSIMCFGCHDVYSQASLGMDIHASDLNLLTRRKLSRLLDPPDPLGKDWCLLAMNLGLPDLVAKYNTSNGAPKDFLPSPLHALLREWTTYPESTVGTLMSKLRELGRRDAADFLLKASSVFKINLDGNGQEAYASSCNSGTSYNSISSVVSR
Serine/threonine-protein kinase PAK 5 (Homo sapiens), sequence (Q9P286 whole entry, looked up): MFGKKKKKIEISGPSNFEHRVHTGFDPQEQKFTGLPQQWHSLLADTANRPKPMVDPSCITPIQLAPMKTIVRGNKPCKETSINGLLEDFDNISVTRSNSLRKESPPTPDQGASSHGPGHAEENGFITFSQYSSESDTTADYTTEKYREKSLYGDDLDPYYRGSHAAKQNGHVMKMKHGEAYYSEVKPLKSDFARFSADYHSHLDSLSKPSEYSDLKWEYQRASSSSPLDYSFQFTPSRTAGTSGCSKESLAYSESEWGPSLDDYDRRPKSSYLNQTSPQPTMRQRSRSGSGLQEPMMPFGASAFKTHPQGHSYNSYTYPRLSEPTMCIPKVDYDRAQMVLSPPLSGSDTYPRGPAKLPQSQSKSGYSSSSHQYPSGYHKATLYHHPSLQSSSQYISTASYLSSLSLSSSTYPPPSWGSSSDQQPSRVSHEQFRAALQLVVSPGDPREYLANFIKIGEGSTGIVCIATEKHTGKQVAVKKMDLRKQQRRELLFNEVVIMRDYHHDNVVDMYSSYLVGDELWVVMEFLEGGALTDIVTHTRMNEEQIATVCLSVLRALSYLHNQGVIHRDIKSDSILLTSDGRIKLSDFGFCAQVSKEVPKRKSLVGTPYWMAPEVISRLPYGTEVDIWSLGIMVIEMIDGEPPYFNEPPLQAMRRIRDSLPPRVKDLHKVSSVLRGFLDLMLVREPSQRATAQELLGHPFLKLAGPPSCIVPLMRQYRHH
Dual specificity tyrosine-phosphorylation-regulated kinase 2 (Homo sapiens), sequence (Q92630 whole entry): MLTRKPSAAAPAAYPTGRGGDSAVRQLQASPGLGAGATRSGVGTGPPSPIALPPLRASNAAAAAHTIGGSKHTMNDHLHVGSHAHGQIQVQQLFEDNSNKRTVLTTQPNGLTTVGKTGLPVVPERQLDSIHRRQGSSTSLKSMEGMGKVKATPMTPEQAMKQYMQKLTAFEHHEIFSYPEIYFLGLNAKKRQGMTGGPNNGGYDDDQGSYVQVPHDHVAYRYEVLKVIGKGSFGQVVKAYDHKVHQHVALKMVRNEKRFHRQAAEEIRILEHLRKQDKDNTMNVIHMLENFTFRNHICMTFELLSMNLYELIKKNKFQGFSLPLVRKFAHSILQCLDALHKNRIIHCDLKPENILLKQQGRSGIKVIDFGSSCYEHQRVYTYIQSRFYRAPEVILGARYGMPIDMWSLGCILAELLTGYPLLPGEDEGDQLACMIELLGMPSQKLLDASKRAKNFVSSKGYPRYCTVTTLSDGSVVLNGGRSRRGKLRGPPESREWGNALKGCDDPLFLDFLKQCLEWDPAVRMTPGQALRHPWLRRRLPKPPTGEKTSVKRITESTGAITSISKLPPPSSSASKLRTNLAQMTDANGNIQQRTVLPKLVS
Epidermal growth factor receptor (Homo sapiens), sequence (P00533 whole entry): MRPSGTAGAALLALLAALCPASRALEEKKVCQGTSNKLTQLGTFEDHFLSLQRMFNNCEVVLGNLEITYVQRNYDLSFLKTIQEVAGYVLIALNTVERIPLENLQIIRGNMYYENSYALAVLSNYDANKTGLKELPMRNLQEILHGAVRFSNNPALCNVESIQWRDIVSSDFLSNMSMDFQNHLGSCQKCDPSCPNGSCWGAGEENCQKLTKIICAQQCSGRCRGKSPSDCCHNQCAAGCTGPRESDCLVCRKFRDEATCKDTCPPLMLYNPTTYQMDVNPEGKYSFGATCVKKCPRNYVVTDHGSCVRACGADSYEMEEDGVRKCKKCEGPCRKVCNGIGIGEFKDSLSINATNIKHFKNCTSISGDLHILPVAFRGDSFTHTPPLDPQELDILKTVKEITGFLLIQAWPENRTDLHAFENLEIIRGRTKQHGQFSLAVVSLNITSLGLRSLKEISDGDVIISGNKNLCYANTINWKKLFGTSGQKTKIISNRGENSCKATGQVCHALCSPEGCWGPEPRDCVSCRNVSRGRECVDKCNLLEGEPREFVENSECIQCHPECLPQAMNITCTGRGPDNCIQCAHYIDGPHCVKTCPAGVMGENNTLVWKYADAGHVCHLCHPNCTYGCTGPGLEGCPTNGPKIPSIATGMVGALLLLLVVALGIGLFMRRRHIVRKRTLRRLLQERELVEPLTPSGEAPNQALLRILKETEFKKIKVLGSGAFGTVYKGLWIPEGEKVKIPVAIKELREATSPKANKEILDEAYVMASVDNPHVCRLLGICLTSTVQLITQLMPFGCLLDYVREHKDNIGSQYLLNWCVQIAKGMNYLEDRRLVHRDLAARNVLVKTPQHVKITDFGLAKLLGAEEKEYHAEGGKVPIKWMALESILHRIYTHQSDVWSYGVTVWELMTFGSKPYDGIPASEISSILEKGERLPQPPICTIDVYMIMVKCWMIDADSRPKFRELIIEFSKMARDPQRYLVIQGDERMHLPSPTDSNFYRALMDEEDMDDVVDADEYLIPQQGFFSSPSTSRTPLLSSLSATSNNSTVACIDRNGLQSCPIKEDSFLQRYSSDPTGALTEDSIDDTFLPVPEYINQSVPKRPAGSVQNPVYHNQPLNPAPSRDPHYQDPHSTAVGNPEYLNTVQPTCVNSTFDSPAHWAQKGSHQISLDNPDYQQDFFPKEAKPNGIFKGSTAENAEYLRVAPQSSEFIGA
Serine/threonine-protein kinase pim-2 (Homo sapiens), sequence (Q9P1W9 whole entry, looked up): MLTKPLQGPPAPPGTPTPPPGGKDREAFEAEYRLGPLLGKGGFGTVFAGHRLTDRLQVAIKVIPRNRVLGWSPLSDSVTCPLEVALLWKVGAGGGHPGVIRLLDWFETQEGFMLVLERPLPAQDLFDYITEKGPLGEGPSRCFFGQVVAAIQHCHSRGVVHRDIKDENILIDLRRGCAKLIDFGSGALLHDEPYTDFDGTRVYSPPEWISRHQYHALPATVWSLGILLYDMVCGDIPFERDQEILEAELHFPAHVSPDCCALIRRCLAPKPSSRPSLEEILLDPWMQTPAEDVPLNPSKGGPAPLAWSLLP

The inhibition is the relative decrease from the control value, in per cent. For the molecule `COC(=O)Nc1cc(-c2c(C3CC3)n[nH]c2C)cc2[nH]ncc12`, the inhibition is 7% in test [1]; -3% in test [2]; -6.7% in test [3]; 0.7% in test [4]; 9% in test [5]; -6% in test [6]. Besides, the inhibition in [7] was -4.3%; in test [8], -2.3%; in test [9], 23.7%; in test [10], 6.3%; in [11] it was -3.3%; in test [12], -2%. Moreover, the figures for the inhibition in test [13] and in [14] were -3.7% and -2.7%, respectively.
With `Cc1n[nH]c(C)c1-c1ccc2c(NC(=O)c3ccc(N4CCN(C)CC4)cc3)n[nH]c2c1`, the inhibition was -2% in test [15], -2% in [16], -1.3% in test [17] and -8.3% in [18].
As to `Cc1[nH]nc(C2CC2)c1-c1ccc2c(-c3ccc(N4CCN(C)CC4)nc3)n[nH]c2c1`, the inhibition in test [19] is 1.7%; in test [20] it was 2.3%; in test [21], -1%; in test [22], 33%; in [23], 97%; in [24], -2.7%. For the same molecule, the inhibition was 5.3% in [25], -6.7% in test [26], 4.7% in test [27] and -0.7% in [28].
